The target in this experiment is T1, recombinant human GR (Homo sapiens, UniProt P04150).
T1 construct: purchased Panvera/Invitrogen P2812 (kit P2893)
T1 sequence (P04150 1-777): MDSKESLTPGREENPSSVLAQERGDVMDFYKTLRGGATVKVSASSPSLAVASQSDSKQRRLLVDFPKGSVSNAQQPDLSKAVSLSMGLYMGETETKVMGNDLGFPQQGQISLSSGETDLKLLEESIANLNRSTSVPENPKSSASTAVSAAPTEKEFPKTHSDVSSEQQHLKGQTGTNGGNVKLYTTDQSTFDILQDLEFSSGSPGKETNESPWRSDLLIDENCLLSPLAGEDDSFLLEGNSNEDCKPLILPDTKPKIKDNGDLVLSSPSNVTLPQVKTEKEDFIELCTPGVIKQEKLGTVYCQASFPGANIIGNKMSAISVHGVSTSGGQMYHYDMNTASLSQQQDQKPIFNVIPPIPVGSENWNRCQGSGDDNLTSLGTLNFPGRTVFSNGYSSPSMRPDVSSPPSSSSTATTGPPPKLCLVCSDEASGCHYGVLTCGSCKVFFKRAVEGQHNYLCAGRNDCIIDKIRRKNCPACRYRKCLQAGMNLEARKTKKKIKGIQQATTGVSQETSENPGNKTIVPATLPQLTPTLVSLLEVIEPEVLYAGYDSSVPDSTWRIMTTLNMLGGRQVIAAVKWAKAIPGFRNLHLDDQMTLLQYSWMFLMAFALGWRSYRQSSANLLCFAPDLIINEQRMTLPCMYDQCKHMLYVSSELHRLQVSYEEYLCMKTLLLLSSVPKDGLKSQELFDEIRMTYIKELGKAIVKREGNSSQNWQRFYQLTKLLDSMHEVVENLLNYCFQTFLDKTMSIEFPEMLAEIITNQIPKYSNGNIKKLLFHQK
The experiment in a line: Human Glucocorticoid Receptor (GR) Assay, fluorescence polarization (GRhuFL_FP_v2, GR-binders). The experiment is classed as binding. The procedure: Human Glucocorticoid Receptor (GR) Assay
The assay is based on a commercial kit from Panvera/Invitrogen (Part number P2893). The assay technology is fluorescence polarization. […] The GR and Stabilizing Peptide reagents are stored at −70° C. while the GS Red is stored at −20° C. Also included in the kit are 1M DTT (Panvera, Part number P2325, stored at −20° C.) and GR Screening buffer 10× (Panvera, Part number P2814, stored at −70° C. initially but once thawed stored at room temperature). Avoid repeated freeze/thaws for all reagents. The GR Screening buffer 10× comprises 100 mM potassium phosphate, 200 mM sodium molybdate, 1 mM EDTA and 20% DMSO.
0% control was 100% DMSO and 100% control was 10 μM Dexamethasone. Background solution (8 μL; assay buffer 10×, Stabilizing Peptide, DTT and ice cold MQ water) was added to the background wells. GS Red solution (7 μL; assay buffer 10×, Stabilizing Peptide, DTT, GS Red and ice cold water) was added to all wells except background wells. GR solution (7 μL; assay buffer 10×, Stabilizing Peptide, DTT, GR and ice cold water) was added to all wells. The plate was sealed and incubated in a dark at room temperature for 2 hours.

`COCc1cccc(-n2ncc3c(NC[C@H](C)NS(=O)(=O)c4c(C)cc(C)cc4C)cccc32)c1` [Example 20, N-[(1S)-2-({1-[3-(Methoxymethyl)phenyl]-1H-indazol-4-yl}amino)-1-methylethyl]-2,4,6-trimethylbenzenesulfonamide]: the IC50 was determined as 4.4 nM. Turning to `Cc1ccc(-n2ncc3c(NC[C@H](C)NS(=O)(=O)c4c(C)cc(C)cc4C)cccc32)cc1` [Example 12, 2,4,6-Trimethyl-N-((1S)-1-methyl-2-{[1-(4-methylphenyl)-1H-indazol-4-yl]amino}ethyl)benzenesulfonamide], the IC50 was determined as 3.9 nM. On to `Cc1cc(C)c(S(=O)(=O)N[C@@H](C)CNc2cccc3c2cnn3-c2cccc(F)c2)c(C)c1` [Example 13, N-((1S)-2-{[1-(3-Fluorophenyl)-1H-indazol-4-yl]amino}-1-methylethyl)-2,4,6-trimethylbenzenesulfonamide], for which the IC50 was 4 nM. `Cc1nn(C2CCCC2)c(C)c1S(=O)(=O)N[C@@H](C)COc1cccc2c1cnn2-c1ccc(F)cc1` [Example 48, 1-Cyclopentyl-N-((1S)-2-{[1-(4-fluorophenyl)-1H-indazol-4-yl]oxy}-1-methylethyl)-3,5-dimethyl-1H-pyrazole-4-sulfonamide]: the IC50 was 51 nM.

For the compound `COc1cncc(-n2ncc3c(NC[C@H](C)NS(=O)(=O)c4c(C)nn(C5CCCC5)c4C)cccc32)c1` [Example 31, 1-Cyclopentyl-N-((1S)-2-{[1-(5-methoxypyridin-3-yl)-1H-indazol-4-yl]amino}-1-methylethyl)-3,5-dimethyl-1H-pyrazole-4-sulfonamide], the IC50 is 44 nM. `COc1ccc(-n2ncc3c(NC[C@H](C)NS(=O)(=O)c4c(C)cc(C)cc4C)cccc32)cc1F` [Example 21, N-((1S)-2-{[1-(3-Fluoro-4-methoxy-phenyl)-1H-indazol-4-yl]amino}-1-methylethyl)-2,4,6-trimethylbenzenesulfonamide]: the IC50 came to 2.7 nM. For the compound `Cc1nn([C@H]2CCOC2)c(C)c1S(=O)(=O)N[C@@H](C)COc1cccc2c1cnn2-c1ccc(F)cc1` [Example 47, N-((1S)-2-{[1-(4-Fluorophenyl)-1H-indazol-4-yl]oxy}-1-methylethyl)-3,5-dimethyl-1-[(3S)-tetrahydrofuran-3-yl]-1H-pyrazole-4-sulfonamide], the IC50 amounted to 36 nM. Then `Cc1cc(C)c(S(=O)(=O)NC[C@@H](C)Nc2cccc3c2cnn3-c2ccc(F)cc2)c(C)c1` [Example 24, N-((2R)-2-{[1-(4-Fluorophenyl)-1H-indazol-4-yl]amino}propyl)-2,4,6-trimethylbenzenesulfonamide], with 8.7 nM. The figure for `Cc1nn(C2CCCC2)c(C)c1S(=O)(=O)N[C@@H](C)CNc1cccc2c1cnn2-c1ccc(F)cc1` [Example 25] is 3.8 nM; for `Cc1cc(C)c(S(=O)(=O)NCC(C)(C)Nc2cccc3c2cnn3-c2ccc(F)cc2)c(C)c1` [Example 55, N-[2-[[1-(4-Fluorophenyl)indazol-4-yl]amino]-2-methylpropyl]-2,4,6-trimethyl-benzenesulfonamide] it is 24 nM.

For the compound `Cc1nn(C2CCCC2)c(C)c1S(=O)(=O)N[C@@H](C)CNc1cccc2c1cnn2-c1cncnc1` [Example 29, 1-Cyclopentyl-3,5-dimethyl-N-{(1S)-1-methyl-2-[(1-pyrimidin-5-yl-1H-indazol-4-yl)amino]ethyl}-1H-pyrazole-4-sulfonamide], the IC50 is 5.7 nM. Take `Cc1cc(C)c(S(=O)(=O)N[C@H](CNc2cccc3c2cnn3-c2ccc(F)cc2)C(C)C)c(C)c1` [Example 35, N-[(1S)-1-({[1-(4-Fluorophenyl)-1H-indazol-4-yl]amino}methyl)-2-methylpropyl]-2,4,6-trimethylbenzenesulfonamide]: the IC50 was found to be 8 nM. With `Cc1nn(C2CCCC2)c(C)c1S(=O)(=O)N[C@@H](C)CNc1cccc2c1cnn2-c1ccc(OC(F)(F)F)cc1` [Example 27, 1-Cyclopentyl-3,5-dimethyl-N-[(1S)-1-methyl-2-({1-[4-(trifluoromethoxy)phenyl]-1H-indazol-4-yl}amino)ethyl]-1H-pyrazole-4-sulfonamide], the IC50 was found to be 12 nM. With `Cc1cc(C)c(S(=O)(=O)N[C@@H](C)CNc2cccc3c2cnn3-c2ccc(Cl)cc2)c(C)c1` [Example 22, N-((1S)-2-{[1-(4-Chlorophenyl)-1H-indazol-4-yl]amino}-1-methylethyl)-2,4,6-trimethylbenzenesulfonamide], the IC50 is 3.5 nM. In the case of `Cc1nn(C2CCCC2)c(C)c1S(=O)(=O)N[C@@H](C)CNc1cccc2c1cnn2-c1ccc(C#N)cc1` [Example 30, N-((1S)-2-{[1-(4-Cyanophenyl)-1H-indazol-4-yl]amino}-1-methylethyl)-1-cyclopentyl-3,5-dimethyl-1H-pyrazole-4-sulfonamide], the IC50 was 4.7 nM. `Cc1cc(C)c(S(=O)(=O)N[C@@H](C)CNc2cccc3c2cnn3-c2cccc(C(=O)O)c2)c(C)c1` [Example 18, 3-[4-({(2S)-2-[(2,4,6-Trimethylbenzenesulfonyl)amino]propyl}amino)-1H-indazol-1-yl]benzoic acid]: the IC50 came out at 57 nM. Regarding `Cc1cc(C)c(S(=O)(=O)N[C@@H](C)CNc2cccc3c2cnn3-c2ccc(F)nc2)c(C)c1` [Example 3, N-((1S)-2-{[1-(6-Fluoropyridin-3-yl)-1H-indazol-4-yl]amino}-1-methylethyl)-2,4,6-trimethylbenzenesulfonamide], the IC50 amounted to 2.3 nM.

For `Cc1cc(C)c(S(=O)(=O)N[C@@H](C)CCc2cccc3c2cnn3-c2cncnc2)c(C)c1` [Example 54, 2,4,6-Trimethyl-N-[(1S)-1-methyl-3-(1-pyrimidin-5-yl-1H-indazol-4-yl)propyl]benzenesulfonamide], the IC50 came out at 17 nM. For `Cc1cc(C)c(S(=O)(=O)NC(C)CS(=O)(=O)c2cccc3c2cnn3-c2ccc(F)cc2)c(C)c1` (stereo not drawn) [Example 37, N-[2-[1-(4-Fluorophenyl)indazol-4-yl]sulfonyl-1-methyl-ethyl]-2,4,6-trimethyl-benzenesulfonamide], the IC50 worked out at 790 nM. Then `COc1ccc(-n2ncc3c(NC[C@H](C)NS(=O)(=O)c4c(C)cc(C)cc4C)cccc32)cc1` [Example 5, N-((1S)-2-{[1-(4-Methoxyphenyl)-1H-indazol-4-yl]amino}-1-methylethyl)-2,4,6-trimethylbenzenesulfonamide], with 5.4 nM; and `Cc1nn(C(C)(C)C)c(C)c1S(=O)(=O)N[C@@H](C)COc1cccc2c1cnn2-c1ccc(F)cc1` [Example 43, 1-tert-Butyl-N-((1S)-2-[{1-(4-fluorophenyl)-1H-indazol-4-yl]oxy}-1-methylethyl)-3,5-dimethyl-1H-pyrazole-4-sulfonamide], with 13 nM. For the compound `COc1cccc(-n2ncc3c(NC[C@H](C)NS(=O)(=O)c4c(C)cc(C)cc4C)cccc32)c1` [Example 8, N-((1S)-2-{[1-(3-Methoxyphenyl)-1H-indazol-4-yl]amino}-1-methylethyl)-2,4,6-trimethylbenzenesulfonamide], the IC50 stood at 6.9 nM. With `Cc1cc(C)c(S(=O)(=O)N[C@@H](C)CCc2cccc3c(-c4ccc(F)cc4)n[nH]c23)c(C)c1` [Example 53, N-{(1S)-3-[3-(4-Fluorophenyl)-1H-indazol-7-yl]-1-methylpropyl}-2,4,6-trimethylbenzenesulfonamide], the IC50 was 10 nM. With `Cc1nn(C2CCCC2)c(C)c1S(=O)(=O)N[C@@H](C)COc1cccc2c1cnn2-c1cccnc1` [Example 49, 1-Cyclopentyl-3,5-dimethyl-N-{(1S)-1-methyl-2-[(1-pyridin-3-yl-1H-indazol-4-yl)oxy]ethyl}-1H-pyrazole-4-sulfonamide], the IC50 came to 54 nM. With `Cc1ccc(-n2ncc3c(NC[C@H](C)NS(=O)(=O)c4ccccc4)cccc32)cc1` [Example 51], the IC50 was found to be 20 nM. The figure for `Cc1cc(C)c(S(=O)(=O)N[C@@H](C)CNc2cccc3c2cnn3-c2ccccc2)c(C)c1` [Example 7, 2,4,6-Trimethyl-N-{(1S)-1-methyl-2-[(1-phenyl-1H-indazol-4-yl)amino]ethyl}benzenesulfonamide] is 3.5 nM; for `Cc1cc(C)c(S(=O)(=O)NC(C)CCc2cccc3c2cnn3-c2ccc(F)cc2)c(C)c1` (stereo not drawn) [Example 38, N-{3-[1-(4-Fluorophenyl)-1H-indazol-4-yl]-1-methylpropyl}-2,4,6-trimethylbenzenesulfonamide] it is 45 nM.

Source of the values: patent US20090124607A1, “Novel Bicyclic Sulfonamides for Use as Glucocorticoid Receptor Modulators in the Treatment of Inflammatory Diseases” (priority 2005, published 2009).
